From patent US20240383886A1, “Protein Tyrosine Phosphatase Degraders and Methods of Use Thereof” (CALICO LIFE SCIENCES LLC, priority 2019, published 2024)

Columns and labels:
PTPN2 [1] = target: T1, PTPN2 (Homo sapiens, UniProt P17706); test: HiBiT-Degradation 293T.109 PTPN2 (Nano-Glo HiBiT Lytic Assay); format: cell-based; details: 293T.109 (HiBiT-PTPN2) cells, 24.0 hours
T1 construct: expressed in transfected cells; host or cells: 293T (293T.109 HiBiT-PTPN2 line; parental 293T WT from ATCC)
T1 sequence (P17706 1-415): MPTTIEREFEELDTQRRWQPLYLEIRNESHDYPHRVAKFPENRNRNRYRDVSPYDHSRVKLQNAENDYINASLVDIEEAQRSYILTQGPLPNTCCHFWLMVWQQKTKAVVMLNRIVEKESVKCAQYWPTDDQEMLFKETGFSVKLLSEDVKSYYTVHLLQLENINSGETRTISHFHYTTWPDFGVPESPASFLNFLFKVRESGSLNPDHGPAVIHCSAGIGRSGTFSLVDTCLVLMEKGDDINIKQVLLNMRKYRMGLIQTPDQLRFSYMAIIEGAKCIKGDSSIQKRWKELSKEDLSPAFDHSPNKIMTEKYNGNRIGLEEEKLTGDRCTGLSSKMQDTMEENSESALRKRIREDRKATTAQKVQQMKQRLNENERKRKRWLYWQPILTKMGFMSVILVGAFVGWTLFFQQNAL
In short: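 293T cells ectopically expressing N-terminally HiBiT-tagged PTPN2 were seeded at 5000 cells/well. They were treated with an 11-point half-log titration from 10 μM, in duplicate, for 24 hours at 37° C., 5% CO2. Remaining tagged PTPN2 was quantified by lytic HiBiT luminescence against untreated and no-reagent controls.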

PTPN2 [2] = test: HiBiT-Degradation B16F10.4 PTPN2; format: cell-based; details: B16F10.4 cells, 24.0 hours

| Compound | DC50 (PTPN2 [1]) [nM] | DC50 (PTPN2 [2]) [nM] |
| --- | --- | --- |
| Cn1c(=O)n(C2CCC(=O)NC2=O)c2ccc(C3CCN(C(=O)CN4CC[C@H](COc5ccc6cc(O)c(N7CC(=O)NS7(=O)=O)c(F)c6c5)C4)CC3)cc21 (stereo partly drawn) [Example 138, 3-[5-[1-[2-[(3S)-3-[[8-fluoro-6-hydroxy-7-(1,1,4-trioxo-1,2,5-thiadiazolidin-2-yl)-2-naphthyl]oxymethyl]pyrrolidin-1-yl]acetyl]-4-piperidyl]-3-methyl-2-oxo-benzimidazol-1-yl]piperidine-2,6-dione] | 50 to 200 | 50 to 200 |
| Cn1c(=O)n(C2CCC(=O)NC2=O)c2ccc(N3CCC(C4CCN(C(=O)COc5ccc6cc(O)c(N7CC(=O)NS7(=O)=O)c(F)c6c5)CC4)CC3)cc21 (stereo not drawn) [Example 109, 3-[5-[4-[1-[2-[[8-fluoro-6-hydroxy-7-(1,1,4-trioxo-1,2,5-thiadiazolidin-2-yl)-2-naphthyl]oxy]acetyl]-4-piperidyl]-1-piperidyl]-3-methyl-2-oxo-benzimidazol-1-yl]piperidine-2,6-dione] | 200 to 1000 | 50 to 200 |
| Cn1c(=O)n(C2CCC(=O)NC2=O)c2ccc(C3CCN(C(=O)CCC(=O)NCCOc4ccc5cc(O)c(N6CC(=O)NS6(=O)=O)c(F)c5c4)CC3)cc21 (stereo not drawn) [Example 30] | ≥ 1000 | ≥ 1000 |
| CN(CCOc1ccc2cc(O)c(N3CC(=O)NS3(=O)=O)c(F)c2c1)C(=O)CNCCCc1ccc2c3c(cccc13)C(=O)N2C1CCC(=O)NC1=O (stereo not drawn) [Example 166, N-(2-((7-(1,1-dioxido-4-oxo-1,2,5-thiadiazolidin-2-yl)-8-fluoro-6-hydroxynaphthalen-2-yl)oxy)ethyl)-2-((3-(1-(2,6-dioxopiperidin-3-yl)-2-oxo-1,2-dihydrobenzo[cd]indol-6-yl)propyl)amino)-N-methylacetamide] | 50 to 200 | 200 to 1000 |
| Cn1c(=O)n(C2CCC(=O)NC2=O)c2ccc(N3CCC(CC(=O)N4CC=C(c5ccc6cc(O)c(N7CC(=O)NS7(=O)=O)c(F)c6c5)CC4)CC3)cc21 (stereo not drawn) [Example 127, 3-[5-[4-[2-[4-[8-fluoro-6-hydroxy-7-(1,1,4-trioxo-1,2,5-thiadiazolidin-2-yl)-2-naphthyl]-3,6-dihydro-2H-pyridin-1-yl]-2-oxo-ethyl]-1-piperidyl]-3-methyl-2-oxo-benzimidazol-1-yl]piperidine-2,6-dione] | 50 to 200 | 200 to 1000 |
| Cn1c(=O)n(C2CCC(=O)NC2=O)c2ccc(C3CCN(CCCC(=O)Nc4ccc5c(F)c(N6CC(=O)NS6(=O)=O)c(O)cc5c4)CC3)cc21 (stereo not drawn) [Example 70] | ≥ 1000 | ≥ 1000 |
| Cn1c(=O)n(C2CCC(=O)NC2=O)c2ccc(N3CCC(CC(=O)Nc4ccc5c(F)c(N6CC(=O)NS6(=O)=O)c(O)cc5c4)CC3)cc21 (stereo not drawn) [Example 78, N-(6-(1,1-dioxido-4-oxo-1,2,5-thiadiazolidin-2-yl)-5-fluoro-7-hydroxynaphthalen-2-yl)-2-(1-(1-(2,6-dioxopiperidin-3-yl)-3-methyl-2-oxo-2,3-dihydro-1H-benzo[d]imidazol-5-yl)piperidin-4-yl)acetamide] | 10 to 50 | 10 to 50 |
| CN(c1ccc(C2CCN(CC(=O)NCCOc3ccc4cc(O)c(N5CC(=O)NS5(=O)=O)c(F)c4c3)CC2)cc1)C1CCC(=O)NC1=O (stereo not drawn) [Example 94, 2-[4-[4-[(2,6-dioxo-3-piperidyl)-methyl-amino]phenyl]-1-piperidyl]-N-[2-[[8-fluoro-6-hydroxy-7-(1,1,4-trioxo-1,2,5-thiadiazolidin-2-yl)-2-naphthyl]oxy]ethyl]acetamide] | 200 to 1000 | 200 to 1000 |
| Cn1c(=O)n(C2CCC(=O)NC2=O)c2ccc(N3CCC4(CC3)CN(C(=O)c3ccc5c(F)c(N6CC(=O)NS6(=O)=O)c(O)cc5c3)C4)cc21 (stereo not drawn) [Example 56] | ≥ 1000 | 200 to 1000 |
| Cn1c(=O)n(C2CCC(=O)NC2=O)c2ccc(C3CCN(CCN4CCC[C@@H](COc5ccc6cc(O)c(N7CC(=O)NS7(=O)=O)c(F)c6c5)C4)CC3)cc21 (stereo partly drawn) [Example 137, 3-[5-[1-[2-[(3R)-3-[[8-fluoro-6-hydroxy-7-(1,1,4-trioxo-1,2,5-thiadiazolidin-2-yl)-2-naphthyl]oxymethyl]-1-piperidyl]ethyl]-4-piperidyl]-3-methyl-2-oxo-benzimidazol-1-yl]piperidine-2,6-dione] | 50 to 200 | 50 to 200 |
| CC(C)(Nc1cccc2c1C(=O)N(C1CCC(=O)NC1=O)C2=O)c1cn(CCC(=O)Nc2ccc3c(F)c(N4CC(=O)NS4(=O)=O)c(O)cc3c2)nn1 (stereo not drawn) [Example 18, N-(6-(1,1-dioxido-4-oxo-1,2,5-thiadiazolidin-2-yl)-5-fluoro-7-hydroxynaphthalen-2-yl)-3-(4-(2-((2-(2,6-dioxopiperidin-3-yl)-1,3-dioxoisoindolin-4-yl)amino)propan-2-yl)-1H-1,2,3-triazol-1-yl)propanamide] | 200 to 1000 | ≥ 1000 |
| O=C1CCC(N2C(=O)c3cccc4c(C5CCN(CC(=O)N6CC(Oc7ccc8cc(O)c(N9CC(=O)NS9(=O)=O)c(F)c8c7)C6)CC5(F)F)ccc2c34)C(=O)N1 (stereo not drawn) [Example 165, 3-[6-[3,3-difluoro-1-[2-[3-[[8-fluoro-6-hydroxy-7-(1,1,4-trioxo-1,2,5-thiadiazolidin-2-yl)-2-naphthyl]oxy]azetidin-1-yl]-2-oxo-ethyl]-4-piperidyl]-2-oxo-benzo[cd]indol-1-yl]piperidine-2,6-dione] | 10 to 50 | 50 to 200 |
| O=C1CCC(N2Cc3c(OCC(=O)N4CCC(C(=O)N5CC(Oc6ccc7cc(O)c(N8CC(=O)NS8(=O)=O)c(F)c7c6)C5)CC4)cccc3C2=O)C(=O)N1 (stereo not drawn) [Example 32] | 200 to 1000 | 200 to 1000 |
| O=C(CN1CCC(c2ccc(NC3CCC(=O)NC3=O)cc2F)CC1)NCCOc1ccc2cc(O)c(N3CC(=O)NS3(=O)=O)c(F)c2c1 (stereo not drawn) [Example 10, 2-[4-[4-[(2,6-dioxo-3-piperidyl)amino]-2-fluoro-phenyl]-1-piperidyl]-N-[2-[[8-fluoro-6-hydroxy-7-(1,1,4-trioxo-1,2,5-thiadiazolidin-2-yl)-2-naphthyl]oxy]ethyl]acetamide] | 50 to 200 | ≥ 1000 |
| O=C1CCC(N2Cc3c(NCC(=O)N4CC(C(=O)NCCOc5ccc6cc(O)c(N7CC(=O)NS7(=O)=O)c(F)c6c5)C4)cccc3C2=O)C(=O)N1 (stereo not drawn) [Example 36] | 200 to 1000 | 200 to 1000 |
| Cn1c(=O)n(C2CCC(=O)NC2=O)c2ccc(C3CCN(CC(=O)N4CC[C@@H](COc5ccc6cc(O)c(N7CC(=O)NS7(=O)=O)c(F)c6c5)C4)CC3(F)F)cc21 (stereo partly drawn) [Example 162, 3-[5-[3,3-difluoro-1-[2-[(3R)-3-[[8-fluoro-6-hydroxy-7-(1,1,4-trioxo-1,2,5-thiadiazolidin-2-yl)-2-naphthyl]oxymethyl]pyrrolidin-1-yl]-2-oxo-ethyl]-4-piperidyl]-3-methyl-2-oxo-benzimidazol-1-yl]piperidine-2,6-dione] | 10 to 50 | 50 to 200 |
| Cn1c(=O)n(C2CCC(=O)NC2=O)c2ccc(C3CCN(CCn4cc(-c5ccc6c(F)c(N7CC(=O)NS7(=O)=O)c(O)cc6c5)cn4)CC3)cc21 (stereo not drawn) [Example 122, 3-[5-[1-[2-[4-[5-fluoro-7-hydroxy-6-(1,1,4-trioxo-1,2,5-thiadiazolidin-2-yl)-2-naphthyl]pyrazol-1-yl]ethyl]-4-piperidyl]-3-methyl-2-oxo-benzimidazol-1-yl]piperidine-2,6-dione] | 10 to 50 | 200 to 1000 |
| Cn1nc(C2CCC(=O)NC2=O)c2ccc(N3CCC(CC(=O)Nc4ccc5c(F)c(N6CC(=O)NS6(=O)=O)c(O)cc5c4)CC3)cc21 (stereo not drawn) [Example 167, 2-[1-[3-(2,6-dioxo-3-piperidyl)-1-methyl-indazol-6-yl]-4-piperidyl]-N-[5-fluoro-7-hydroxy-6-(1,1,4-trioxo-1,2,5-thiadiazolidin-2-yl)-2-naphthyl]acetamide] | 50 to 200 | 50 to 200 |
| O=C(CCCCOc1ccc2cc(O)c(N3CC(=O)NS3(=O)=O)c(F)c2c1)NCCCc1ccc2c3c(cccc13)C(=O)N2C1CCC(=O)NC1=O (stereo not drawn) [Example 111, N-[3-[1-(2,6-dioxo-3-piperidyl)-2-oxo-benzo[cd]indol-6-yl]propyl]-5-[[8-fluoro-6-hydroxy-7-(1,1,4-trioxo-1,2,5-thiadiazolidin-2-yl)-2-naphthyl]oxy]pentanamide] | 10 to 50 | 50 to 200 |
| Cn1c(=O)n(C2CCC(=O)NC2=O)c2ccc(C3CCN(CCN4CCC[C@H](COc5ccc6cc(O)c(N7CC(=O)NS7(=O)=O)c(F)c6c5)C4)CC3)cc21 (stereo partly drawn) [Example 147, 3-[5-[1-[2-[(3S)-3-[[8-fluoro-6-hydroxy-7-(1,1,4-trioxo-1,2,5-thiadiazolidin-2-yl)-2-naphthyl]oxymethyl]-1-piperidyl]ethyl]-4-piperidyl]-3-methyl-2-oxo-benzimidazol-1-yl]piperidine-2,6-dione] | 200 to 1000 | 200 to 1000 |
| O=C(C=Cc1ccc2cc(O)c(N3CC(=O)NS3(=O)=O)c(F)c2c1)NC1CCN(C(=O)COc2cccc3c2CN(C2CCC(=O)NC2=O)C3=O)CC1 (stereo not drawn) [Example 11, 3-(7-(1,1-dioxido-4-oxo-1,2,5-thiadiazolidin-2-yl)-8-fluoro-6-hydroxynaphthalen-2-yl)-N-(1-(2-((2-(2,6-dioxopiperidin-3-yl)-1-oxoisoindolin-4-yl)oxy)acetyl)piperidin-4-yl)acrylamide] | 200 to 1000 | 200 to 1000 |
